Measured values as given in article PMC12856317, “A reversible feedback mechanism regulating mitochondrial heme synthesis” (The Journal of Biological Chemistry, 2025).

How the values were obtained:
Experiment in all cases: Isothermal titration calorimetry, hemin-protein interaction
Assay type in all cases: binding
Conditions in all cases: ITC, 25 °C
[1] = target: T1, human ALAS2 ΔC (residues 54–547) (Homo sapiens, UniProt P22557)
T1 construct: a truncation without the C-terminal CXXC motif (ΔC, residues 54–547); His6-SUMO (N, cleaved yes); made in house; host or cells: Escherichia coli BL21-Codon Plus (DE3)-RIL
T1 sequence (P22557 54-547): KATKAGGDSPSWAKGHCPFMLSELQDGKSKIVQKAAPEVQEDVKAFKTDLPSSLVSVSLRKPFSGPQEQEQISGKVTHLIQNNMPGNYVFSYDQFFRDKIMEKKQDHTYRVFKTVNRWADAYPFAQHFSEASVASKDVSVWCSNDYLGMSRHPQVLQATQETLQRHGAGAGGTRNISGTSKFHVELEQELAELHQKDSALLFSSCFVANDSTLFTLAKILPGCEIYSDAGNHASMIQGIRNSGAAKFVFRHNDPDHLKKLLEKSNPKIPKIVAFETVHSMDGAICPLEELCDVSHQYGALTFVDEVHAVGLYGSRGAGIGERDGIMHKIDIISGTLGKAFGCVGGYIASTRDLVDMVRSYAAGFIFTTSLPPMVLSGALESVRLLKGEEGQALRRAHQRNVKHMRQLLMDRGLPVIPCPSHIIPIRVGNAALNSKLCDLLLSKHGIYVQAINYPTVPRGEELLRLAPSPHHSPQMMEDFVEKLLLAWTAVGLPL
Experimental: (§1) Binding curves of the hemin-protein interaction were determined using Nano-ITC instrument (TA instruments) at 25 °C. Hemin was dissolved in 1 M NaOH and autoclaved to prepare a stock solution of 746 μM, ε385nm = 58,440 M^−1 cm^−1. The stock solution was diluted to 1.5 μM in titration buffer containing 25 mM Hepes, pH 7, 150 mM KCl, and 0.5 mM TCEP. Protein samples were dialyzed into the titration buffer and diluted to a final concentration of 40 μM. Fixed volumes of protein were injected at 200-s intervals into the cell containing hemin. An A + B hetero-association model was used to determine the thermodynamic parameters for each variant. Data were integrated and analyzed using NITPIC and SEDPHAT and visualized using GUSSI ([71], [72], [73]).

[2] = target: T2, human ALAS2 ΔN (residues 75–587) (Homo sapiens, UniProt P22557)
T2 construct: a truncation without HRM3 (ΔN, residues 75–587); His6-SUMO (N, cleaved yes); made in house; host or cells: Escherichia coli BL21-Codon Plus (DE3)-RIL
T2 sequence (P22557 75-587): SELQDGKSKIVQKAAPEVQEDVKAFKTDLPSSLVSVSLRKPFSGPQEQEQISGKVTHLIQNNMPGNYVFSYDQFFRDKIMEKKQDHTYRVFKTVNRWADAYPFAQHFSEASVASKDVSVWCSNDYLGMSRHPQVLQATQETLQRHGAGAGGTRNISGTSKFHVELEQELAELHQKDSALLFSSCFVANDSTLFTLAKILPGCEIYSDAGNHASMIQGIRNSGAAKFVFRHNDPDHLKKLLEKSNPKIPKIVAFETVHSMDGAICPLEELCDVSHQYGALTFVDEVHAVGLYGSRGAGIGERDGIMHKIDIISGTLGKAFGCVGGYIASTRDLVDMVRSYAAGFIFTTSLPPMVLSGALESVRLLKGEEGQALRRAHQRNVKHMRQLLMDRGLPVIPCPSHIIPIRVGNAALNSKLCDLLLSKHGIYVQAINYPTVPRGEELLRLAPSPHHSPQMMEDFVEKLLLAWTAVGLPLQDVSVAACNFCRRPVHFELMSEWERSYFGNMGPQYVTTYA
Experimental: as §1

[3] = target: T3, human ALAS2 Cys-mut (C70A/C555A/C558A) (Homo sapiens, UniProt P22557, C555A/C558A/C70A)
T3 construct: Site-directed mutagenesis was performed on the mature ALAS2 (residues 54–587) construct to generate truncations and cysteine mutants; His6-SUMO (N, cleaved yes); made in house; host or cells: Escherichia coli BL21-Codon Plus (DE3)-RIL
T3 sequence (P22557 54-587 C70A/C555A/C558A): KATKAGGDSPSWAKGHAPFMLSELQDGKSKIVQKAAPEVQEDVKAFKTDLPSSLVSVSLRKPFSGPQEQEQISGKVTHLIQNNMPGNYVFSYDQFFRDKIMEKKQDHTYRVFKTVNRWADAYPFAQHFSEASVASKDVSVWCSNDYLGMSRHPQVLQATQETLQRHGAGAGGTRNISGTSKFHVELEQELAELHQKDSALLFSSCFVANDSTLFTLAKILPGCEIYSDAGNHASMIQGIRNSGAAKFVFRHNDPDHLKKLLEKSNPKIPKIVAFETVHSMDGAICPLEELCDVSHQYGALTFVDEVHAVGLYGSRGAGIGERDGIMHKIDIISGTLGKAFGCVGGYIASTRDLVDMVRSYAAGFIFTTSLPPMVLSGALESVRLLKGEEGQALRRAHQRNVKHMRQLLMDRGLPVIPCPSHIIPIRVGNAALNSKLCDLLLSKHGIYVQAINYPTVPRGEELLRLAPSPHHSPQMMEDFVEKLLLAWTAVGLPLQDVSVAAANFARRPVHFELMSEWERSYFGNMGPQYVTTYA
Experimental: as §1

[4] = 95% confidence interval in brackets

ΔG [1]: -8.94 kcal/mol
ΔS [1]: −1.80 kcal/mol K
Kd [1, 4]: 279 nM
ΔH [1, 4]: −544 [−604, −499] kcal/mol
ΔG [2]: -8.50 kcal/mol
ΔS [2]: −3.35 kcal/mol K
Kd [2, 4]: 589 nM
ΔH [2, 4]: −1006 [−1432, −810] kcal/mol
ΔG [3]: -8.48 kcal/mol
ΔS [3]: −1.18 kcal/mol K
Kd [3, 4]: 610 nM
ΔH [3, 4]: −361 [−561, −280] kcal/mol
Substance: ferric chloride heme [hemin]
